According to patent publication US9540392B2, “Thienopyrimidines” (BAYER PHARMA AKTIENGESELLSCHAFT, priority 2012, dated 2017):

Molecular target: T1, human full-length MKNK1 (Homo sapiens, UniProt Q9BUB5, T385D)
T1 construct: GST (N); purchased Carna Biosciences 02-145; host or cells: insect cells (baculovirus expression system)
Experiment: MKNK1 kinase high ATP assay (TR-FRET)
Type: biochemical
Conditions: not given
Procedure, shortened: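 Compound was preincubated 15 min at 22° C. with MKNK1 in 50 mM HEPES pH 7.5, 5 mM MgCl2, 1.0 mM DTT, then the reaction ran 30 min at 22° C. with 2 mM ATP and 0.06 μM biotinylated peptide (final).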

T1 sequence (Q9BUB5 1-424 isoform Q9BUB5-2 T344D): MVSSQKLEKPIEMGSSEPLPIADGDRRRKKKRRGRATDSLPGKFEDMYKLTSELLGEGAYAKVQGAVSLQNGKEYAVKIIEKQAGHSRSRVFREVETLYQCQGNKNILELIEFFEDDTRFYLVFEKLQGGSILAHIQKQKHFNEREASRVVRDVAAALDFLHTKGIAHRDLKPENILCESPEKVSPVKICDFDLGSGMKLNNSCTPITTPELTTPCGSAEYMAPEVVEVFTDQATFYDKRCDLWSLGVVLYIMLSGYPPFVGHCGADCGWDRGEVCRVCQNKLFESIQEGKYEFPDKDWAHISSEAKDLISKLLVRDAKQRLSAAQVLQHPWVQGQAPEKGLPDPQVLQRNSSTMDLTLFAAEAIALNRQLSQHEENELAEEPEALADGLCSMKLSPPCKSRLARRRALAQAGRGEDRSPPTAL

SMILES	IC50
CCOc1cc2[nH]ncc2cc1Nc1ncnc2sc3c(c12)CCC(C(=O)N1CCC(=O)CC1)C3 (racemic) [Example 211, (RS)-1-({4-[(6-Ethoxy-1H-indazol-5-yl)amino]-5,6,7,8-tetrahydro[1]benzothieno[2,3-d]pyrimidin-7-yl}carbonyl)piperidin-4-one]	0.5 nM

Same assay, conditions: 2 mM ATP, after preincubation with MKNK1; read-out: MKNK1 IC50 (MKNK1 high ATP)

SMILES	IC50
CCOc1cc2[nH]ncc2cc1Nc1ncnc2sc3c(c12)CCC(C(=O)O)C3 (racemic) [Example 210, (RS)-4-[(6-Ethoxy-1H-indazol-5-yl)amino]-5,6,7,8-tetrahydro[1]benzothieno[2,3-d]pyrimidine-7-carboxylic acid]	73 nM
CCOc1cc2[nH]ncc2cc1Nc1ncnc2sc3c(c12)CCC(C(=O)N1CCOCC1)C3 (racemic) [Example 212, (RS)-{4-[(6-Ethoxy-1H-indazol-5-yl)amino]-5,6,7,8-tetrahydro[1]benzothieno[2,3-d]pyrimidin-7-yl}(morpholin-4-yl)methanone]	0.3 nM
CC(C)Oc1cc2[nH]ncc2cc1Nc1ncnc2sc3c(c12)CCC(C(=O)N1CCCCC1)C3 (racemic) [Example 213, (RS)-Piperidin-1-yl(4-{[6-(propan-2-yloxy)-1H-indazol-5-yl]amino}-5,6,7,8-tetrahydro[1]benzothieno[2,3-d]pyrimidin-7-yl)methanone]	1.5 nM
CCN(CCO)C(=O)C1CCc2c(sc3ncnc(Nc4cc5cn[nH]c5cc4OC(C)C)c23)C1 (racemic) [Example 214, (RS)—N-ethyl-N-(2-hydroxyethyl)-4-{[6-(propan-2-yloxy)-1H-indazol-5-yl]amino}-5,6,7,8-tetrahydro[1]benzothieno[2,3-d]pyrimidine-7-carboxamide]	0.3 nM
CC(C)Oc1cc2[nH]ncc2cc1Nc1ncnc2sc3c(c12)CCC(C(=O)N(C)C(C)C)C3 (racemic) [Example 215, (RS)—N-Methyl-N-(propan-2-yl)-4-{[6-(propan-2-yloxy)-1H-indazol-5-yl]amino}-5,6,7,8-tetrahydro[1]benzothieno[2,3-d]pyrimidine-7-carboxamide]	0.5 nM
CC(C)Oc1cc2[nH]ncc2cc1Nc1ncnc2sc3c(c12)CCC(C(=O)N(C)CC(F)F)C3 (racemic) [Example 216, (RS)—N-(2,2-Difluoroethyl)-N-methyl-4-{[6-(propan-2-yloxy)-1H-indazol-5-yl]amino}-5,6,7,8-tetrahydro[1]benzothieno[2,3-d]pyrimidine-7-carboxamide]	0.5 nM
CCN(C)C(=O)C1CCc2c(sc3ncnc(Nc4cc5cn[nH]c5cc4OC(C)C)c23)C1 (racemic) [Example 217, (RS)—N-Ethyl-N-methyl-4-{[6-(propan-2-yloxy)-1H-indazol-5-yl]amino}-5,6,7,8-tetrahydro[1]benzothieno[2,3-d]pyrimidine-7-carboxamide]	1 nM
CC(C)Oc1cc2[nH]ncc2cc1Nc1ncnc2sc3c(c12)CCC(C(=O)N1CCOCC1)C3 (racemic) [Example 218, (RS)-Morpholin-4-yl(4-{[6-(propan-2-yloxy)-1H-indazol-5-yl]amino}-5,6,7,8-tetrahydro[1]benzothieno[2,3-d]pyrimidin-7-yl)methanone]	1.2 nM
CC(C)Oc1cc2[nH]ncc2cc1Nc1ncnc2sc3c(c12)CCC(C(=O)N1CCC1)C3 (racemic) [Example 219, (RS)-Azetidin-1-yl(4-{[6-(propan-2-yloxy)-1H-indazol-5-yl]amino}-5,6,7,8-tetrahydro[1]benzothieno[2,3-d]pyrimidin-7-yl)methanone]	0.5 nM
CC(C)Oc1cc2[nH]ncc2cc1Nc1ncnc2sc3c(c12)CCC(C(=O)N(C)CC1CC1)C3 (racemic) [Example 220, (RS)—N-(Cyclopropylmethyl)-N-methyl-4-{[6-(propan-2-yloxy)-1H-indazol-5-yl]amino}-5,6,7,8-tetrahydro[1]benzothieno[2,3-d]pyrimidine-7-carboxamide]	0.6 nM
CC(C)Oc1cc2[nH]ncc2cc1Nc1ncnc2sc3c(c12)CCC(C(=O)N1CCCC1)C3 (racemic) [Example 221, (RS)-(4-{[6-(Propan-2-yloxy)-1H-indazol-5-yl]amino}-5,6,7,8-tetrahydro[1]benzothieno[2,3-d]pyrimidin-7-yl)(pyrrolidin-1-yl)methanone]	0.7 nM
CC(C)Oc1cc2[nH]ncc2cc1Nc1ncnc2sc3c(c12)CCC(C(=O)N1CC2(CCS2(=O)=O)C1)C3 (racemic) [Example 222, (RS)-(1,1-Dioxido-1-thia-6-azaspiro[3.3]hept-6-yl)(4-{[6-(propan-2-yloxy)-1H-indazol-5-yl]amino}-5,6,7,8-tetrahydro[1]benzothieno[2,3-d]pyrimidin-7-yl)methanone]	0.9 nM
CCOc1cc2[nH]ncc2cc1Nc1ncnc2sc3c(c12)CCC(C(=O)N1CCC1)C3 (racemic) [Example 223, (RS)-Azetidin-1-yl{4-[(6-ethoxy-1H-indazol-5-yl)amino]-5,6,7,8-tetrahydro[1]benzothieno[2,3-d]pyrimidin-7-yl}methanone]	1.5 nM
CCOc1cc2[nH]ncc2cc1Nc1ncnc2sc3c(c12)CCC(C(=O)N(C)C(C)C)C3 (racemic) [Example 224, (RS)-4-[(6-Ethoxy-1H-indazol-5-yl)amino]-N-isopropyl-N-methyl-5,6,7,8-tetrahydro[1]benzothieno[2,3-d]pyrimidine-7-carboxamide]	0.6 nM
CCOc1cc2[nH]ncc2cc1Nc1ncnc2sc3c(c12)CCC(C(=O)N(C)CCO)C3 (racemic) [Example 225, (RS)-4-[(6-Ethoxy-1H-indazol-5-yl)amino]-N-(2-hydroxyethyl)-N-methyl-5,6,7,8-tetrahydro[1]benzothieno[2,3-d]pyrimidine-7-carboxamide]	0.3 nM
CCOc1cc2[nH]ncc2cc1Nc1ncnc2sc3c(c12)CCC(C(=O)N(C)CC(F)F)C3 (racemic) [Example 226, (RS)—N-(2,2-Difluoroethyl)-4-[(6-ethoxy-1H-indazol-5-yl)amino]-N-methyl-5,6,7,8-tetrahydro[1]benzothieno[2,3-d]pyrimidine-7-carboxamide]	0.7 nM
CCOc1cc2[nH]ncc2cc1Nc1ncnc2sc3c(c12)CCC(C(=O)N1CCCC1)C3 (racemic) [Example 228, (RS)-{4-[(6-Ethoxy-1H-indazol-5-yl)amino]-5,6,7,8-tetrahydro[1]benzothieno[2,3-d]pyrimidin-7-yl}(pyrrolidin-1-yl)methanone]	0.2 nM
CCOc1cc2[nH]ncc2cc1Nc1ncnc2sc3c(c12)CCC(C(=O)N(C)CC)C3 (racemic) [Example 229, (RS)-4-[(6-Ethoxy-1H-indazol-5-yl)amino]-N-ethyl-N-methyl-5,6,7,8-tetrahydro[1]benzothieno[2,3-d]pyrimidine-7-carboxamide]	0.7 nM
CC(C)Oc1cc2[nH]ncc2cc1Nc1ncnc2sc3c(c12)CCC(C(=O)N(C)CCO)C3 (racemic) [Example 230, (RS)—N-(2-Hydroxyethyl)-4-[(6-isopropoxy-1H-indazol-5-yl)amino]-N-methyl-5,6,7,8-tetrahydro[1]benzothieno[2,3-d]pyrimidine-7-carboxamide]	0.2 nM
CCOc1cc2[nH]ncc2cc1Nc1ncnc2sc3c(c12)CCC(C(=O)N(CC)CCO)C3 (racemic) [Example 231, (RS)-4-[(6-Ethoxy-1H-indazol-5-yl)amino]-N-ethyl-N-(2-hydroxyethyl)-5,6,7,8-tetrahydro[1]benzothieno[2,3-d]pyrimidine-7-carboxamide]	0.3 nM
COc1cc2[nH]ncc2cc1Nc1ncnc2sc3c(c12)CCC(C(=O)N(CCO)CCO)C3 (racemic) [Example 234, (RS)—N, N-Bis(2-hydroxyethyl)-4-[(6-methoxy-1H-indazol-5-yl)amino]-5,6,7,8-tetrahydro[1]benzothieno[2,3-d]pyrimidine-7-carboxamide]	0.4 nM
CCOc1cc2[nH]ncc2cc1Nc1ncnc2sc3c(c12)CCC(C(=O)N(C)C1CC1)C3 (racemic) [Example 235, (RS)—N—Cyclopropyl-4-[(6-ethoxy-1H-indazol-5-yl)amino]-N-methyl-5,6,7,8-tetrahydro[1]benzothieno[2,3-d]pyrimidine-7-carboxamide]	0.5 nM
CCOc1cc2[nH]ncc2cc1Nc1ncnc2sc3c(c12)CCC(C(=O)N(CC)C(C)C)C3 (racemic) [Example 236, (RS)-4-[(6-Ethoxy-1H-indazol-5-yl)amino]-N-ethyl-N-(propan-2-yl)-5,6,7,8-tetrahydro[1]benzothieno[2,3-d]pyrimidine-7-carboxamide]	2.8 nM
COc1cc2[nH]ncc2cc1Nc1ncnc2sc3c(c12)CCC(C(=O)N1CC(C#N)C1)C3 (racemic) [Example 237, (RS)-1-({4-[(6-Methoxy-1H-indazol-5-yl)amino]-5,6,7,8-tetrahydro[1]benzothieno[2,3-d]pyrimidin-7-yl}carbonyl)azetidine-3-carbonitrile]	0.3 nM
CCOc1cc2[nH]ncc2cc1Nc1ncnc2sc3c(c12)CCC(C(=O)N(C)C(C)(C)C)C3 (racemic) [Example 238, (RS)—N-tert-Butyl-4-[(6-ethoxy-1H-indazol-5-yl)amino]-N-methyl-5,6,7,8-tetrahydro[1]benzothieno[2,3-d]pyrimidine-7-carboxamide]	1.5 nM
CCOc1cc2[nH]ncc2cc1Nc1ncnc2sc3c(c12)CCC(C(=O)N1CC2(COC2)C1)C3 (racemic) [Example 239, (RS)-{4-[(6-Ethoxy-1H-indazol-5-yl)amino]-5,6,7,8-tetrahydro[1]benzothieno[2,3-d]pyrimidin-7-yl}(2-oxa-6-azaspiro[3.3]hept-6-yl)methanone]	0.4 nM
CCOc1cc2[nH]ncc2cc1Nc1ncnc2sc3c(c12)CCC(C(=O)N(C)CC1CC1)C3 (racemic) [Example 240, (RS)—N-(Cyclopropylmethyl)-4-[(6-ethoxy-1H-indazol-5-yl)amino]-N-methyl-5,6,7,8-tetrahydro[1]benzothieno[2,3-d]pyrimidine-7-carboxamide]	1.1 nM
